Results taken from PubChem BioAssay (NCI).
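At the GI50, growth is halved. The concentration for full growth arrest is given as TGI.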

Experiments:
Experiment in all cases: inhibition of tumour cell growth, NCI panel, 384-well format
[1] = tested on: 786-0 renal
[2] = tested on: A498 renal
[3] = tested on: A549 NSCLC
[4] = tested on: ACHN renal
[5] = tested on: BT-549 breast
[6] = tested on: CAKI-1 renal
[7] = tested on: COLO 205 colon
[8] = tested on: DU-145 prostate
[9] = tested on: EKVX NSCLC
[10] = tested on: HCT-116 colon
[11] = tested on: HCT-15 colon
[12] = tested on: HL-60(TB) leukemia
[13] = tested on: HOP-62 NSCLC
[14] = tested on: HOP-92 NSCLC
[15] = tested on: HS 578T breast
[16] = tested on: HT29 colon
[17] = tested on: IGROV1 ovarian
[18] = tested on: K-562 leukemia
[19] = tested on: KM12 colon
[20] = tested on: M14 melanoma
[21] = tested on: MALME-3M melanoma
[22] = tested on: MCF7 breast
[23] = tested on: MDA-MB-231 breast
[24] = tested on: MDA-MB-435 melanoma
[25] = tested on: MDA-MB-468 breast
[26] = tested on: MOLT-4 leukemia
[27] = tested on: NCI-H226 lung
[28] = tested on: NCI-H23 lung
[29] = tested on: NCI-H322M lung
[30] = tested on: NCI-H460 NSCLC
[31] = tested on: NCI-H522 lung
[32] = tested on: OVCAR-3 ovarian
[33] = tested on: OVCAR-4 ovarian
[34] = tested on: OVCAR-5 ovarian
[35] = tested on: OVCAR-8 ovarian
[36] = tested on: PC-3 prostate
[37] = tested on: RXF 393 renal
[38] = tested on: SF-268 CNS
[39] = tested on: SF-295 CNS
[40] = tested on: SF-539 CNS
[41] = tested on: SK-MEL-2 melanoma
[42] = tested on: SK-MEL-28 melanoma
[43] = tested on: SK-MEL-5 melanoma
[44] = tested on: SK-OV-3 ovarian
[45] = tested on: SN12C renal
[46] = tested on: SNB-19 CNS
[47] = tested on: SNB-75 CNS
[48] = tested on: SR leukemia
[49] = tested on: SW-620 colon
[50] = tested on: T-47D breast
[51] = tested on: TK-10 renal
[52] = tested on: U251 glioblastoma
[53] = tested on: UACC-257 melanoma
[54] = tested on: UACC-62 melanoma
[55] = tested on: UO-31 renal

C[C@@H]1Cc2c([nH]c3ccccc23)[C@@H](c2c(F)cc(NC3CN(CCCF)C3)cc2F)N1CC(F)(F)CO
GI50 [1]: 1.82 µM | TGI [1]: 3.23 µM | GI50 [2]: 1.45 µM | TGI [2]: 2.82 µM | GI50 [3]: 4.1 µM | TGI [3]: 14.5 µM | GI50 [4]: 1.71 µM | TGI [4]: 3.16 µM | GI50 [5]: 1.44 µM | TGI [5]: 2.85 µM | GI50 [6]: 1.66 µM | TGI [6]: 3.25 µM | GI50 [7]: 2.07 µM | TGI [7]: 3.56 µM | GI50 [8]: 2.5 µM | TGI [8]: 6.5 µM | GI50 [9]: 1.87 µM | TGI [9]: 6.39 µM | GI50 [10]: 1.78 µM | TGI [10]: 3.21 µM | GI50 [11]: 1.95 µM | TGI [11]: 3.74 µM | GI50 [12]: 1.39 µM | TGI [12]: 2.69 µM | GI50 [13]: 2.37 µM | TGI [13]: 6.24 µM | GI50 [14]: 1.79 µM | TGI [14]: 3.68 µM | GI50 [15]: 1.41 µM | TGI [15]: 2.73 µM | GI50 [16]: 1.71 µM | TGI [16]: 3.13 µM | GI50 [17]: 1.84 µM | TGI [17]: 4.33 µM | GI50 [18]: 1.59 µM | TGI [18]: 2.95 µM | GI50 [19]: 1.73 µM | TGI [19]: 3.16 µM | GI50 [20]: 1.78 µM | TGI [20]: 3.17 µM | GI50 [21]: 1.55 µM | TGI [21]: 2.89 µM | TGI [22]: 1.41 µM | GI50 [23]: 3.54 µM | TGI [23]: 12.1 µM | GI50 [24]: 1.73 µM | TGI [24]: 3.11 µM | GI50 [25]: 1.33 µM | TGI [25]: 2.75 µM | GI50 [26]: 1.39 µM | TGI [26]: 2.68 µM | GI50 [27]: 2.35 µM | TGI [27]: 7.78 µM | GI50 [28]: 5.52 µM | TGI [28]: 16.9 µM | GI50 [29]: 2.81 µM | TGI [29]: 6.54 µM | GI50 [30]: 1.47 µM | TGI [30]: 2.86 µM | GI50 [31]: 2.36 µM | TGI [31]: 4.63 µM | GI50 [32]: 1.88 µM | TGI [32]: 4.05 µM | GI50 [33]: 1.32 µM | TGI [33]: 4.65 µM | GI50 [34]: 4.09 µM | TGI [34]: 15.4 µM | GI50 [35]: 2.7 µM | TGI [35]: 8.09 µM | GI50 [36]: 1.84 µM | TGI [36]: 3.88 µM | GI50 [37]: 1.34 µM | TGI [37]: 2.88 µM | GI50 [38]: 1.95 µM | TGI [38]: 4.11 µM | GI50 [39]: 1.97 µM | TGI [39]: 3.68 µM | GI50 [40]: 1.64 µM | TGI [40]: 3.25 µM | GI50 [41]: 1.63 µM | TGI [41]: 2.98 µM | GI50 [42]: 1.6 µM | TGI [42]: 2.96 µM | GI50 [43]: 1.49 µM | TGI [43]: 2.82 µM | GI50 [44]: 1.83 µM | TGI [44]: 3.91 µM | GI50 [45]: 4.89 µM | TGI [45]: 16.5 µM | GI50 [46]: 10.6 µM | TGI [46]: 22.4 µM | GI50 [47]: 1.43 µM | TGI [47]: 3.22 µM | GI50 [48]: 1.67 µM | TGI [48]: 3.03 µM | GI50 [49]: 1.71 µM | TGI [49]: 3.12 µM | GI50 [50]: 1.3 µM | TGI [50]: 2.69 µM | GI50 [51]: 1.75 µM | TGI [51]: 3.26 µM | GI50 [52]: 1.77 µM | TGI [52]: 3.32 µM | GI50 [53]: 1.56 µM | TGI [53]: 2.91 µM | GI50 [54]: 1.58 µM | TGI [54]: 2.95 µM | GI50 [55]: 1.78 µM | TGI [55]: 3.81 µM
